No end group written: not given here.
What was measured:
A549 cells = test: A549 tumor xenograft in nude mice, tumor weight; type: in vivo, mouse; details: s.c. A549 xenograft, paclitaxel alone 40 mg/kg single i.v. dose, 48 h, n = 5 mice per group
Experimental: We further investigated the in vivo effects of Tat-Fhit 7-13 peptide with or without paclitaxel treatment in a preclinical model of lung cancer, using six groups of mice (n = 5 mice per group). Each group was subcutaneously injected with 1×10^7 A549 cells. When tumors reached the diameter of 15 mm, three groups were treated either with a single administration of 40 mg/kg paclitaxel, or 50 mg/kg Tat-Fhit 7-13 peptide, or both; mice were monitored on a regular basis. The remaining three groups, used as controls, were either left untreated or treated with Tat-Fhit 7-13 scrambled or treated with Tat-Fhit 7-13 scrambled plus paclitaxel; 48 h after treatments, mice were sacrificed and tumors were evaluated by weight.
Figure 3 Tat-Fhit 7-13 peptide in combination with paclitaxel blocks in vivo tumor formation A., C. Nude mice were subcutaneously injected with […] A549 cells. When tumors reached 15 mm diameter, mice were mock-treated, treated paclitaxel (single IV administration of 40 mg/kg), with scrambled Tat peptide (50 mg/kg) alone or in combination with paclitaxel, with Tat-Fhit 7-13 peptide (50 mg/Kg) alone or in combination with paclitaxel; paclitaxel and peptides were injected in a single administration and mice were monitored on a regular basis. Two days later, mice were sacrificed and tumors were evaluated by percent A. and by weight C.. […]

[1] = culture medium over adherent cells, 24 h after administration, read-out MALDI mass spectrometry
Description: We tested the stability of our peptides in the culture medium over adherent cells through Mass Spectroemtry-MALDI.

Annexin A4 = target: T1, Annexin A4 (Homo sapiens, UniProt P09525); test: GST pull-down from A549 total lysates, immunoblot for Annexin 4; type: binding; details: GSH resin beads, 12 h at 4°C
T1 construct: endogenous in cells; host or cells: A549 total lysates
T1 sequence (P09525 1-319): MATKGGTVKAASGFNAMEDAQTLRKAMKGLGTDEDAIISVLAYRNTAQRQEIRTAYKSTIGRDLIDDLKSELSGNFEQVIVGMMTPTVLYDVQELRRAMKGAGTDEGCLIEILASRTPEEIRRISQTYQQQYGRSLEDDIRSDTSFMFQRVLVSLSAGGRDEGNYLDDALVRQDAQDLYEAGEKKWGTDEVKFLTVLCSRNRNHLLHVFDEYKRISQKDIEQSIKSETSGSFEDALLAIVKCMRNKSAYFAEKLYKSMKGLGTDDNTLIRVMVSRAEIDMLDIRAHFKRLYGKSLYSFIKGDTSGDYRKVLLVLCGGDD
Description: In order to map the region of Fhit protein binding Annexin A4, we cloned downstream GST three truncated FHIT cDNAs, namely TR1 (332 bp), TR2 (212 bp) and TR3 (113 bp), all containing the N-terminus common to the wild-type Fhit protein. TR1, TR2, and TR3 correspond to the 111, 71, and 38 N-terminal aminoacids of Fhit protein, respectively (Figure 1A). Annexin A4 binds wild-type Fhit/GST fusion protein as well as all shorter forms of Fhit fusion proteins, indicating its binding to the N-terminus of Fhit (Figure 1B). In our previous paper, we reported that Fhit/Annexin A4 interaction was only detectable in the presence of DSP [19]. DSP is a cross-linker containing an amine-reactive N-hydroxysuccinimide (NHS); NHS esters react with primary amine group located at lysine (Lys, K) residue sidechain. Since Lys residues are abundant and easily accessible on the hydrophilic surface of most proteins they usually crosslink with high efficiency.
Figure 1 Fhit peptide interacts with Annexin 4 A. GST-Fhit fusion protein and three deletion mutant proteins. Fhit was deleted from the C-terminal site. B. GST-FHIT plasmids were amplified in BL21 bacteria by stimulation with IPTG […] for 6 h at 30°C. Recombinant GST-Fhit fusion proteins were purified with GSH resin beads and added to A549 total lysates. 12 h after incubation at 4°C, GSH resin beads were washed and proteins eluted. […]

Row | Compound | stability in the culture medium [1] | further results
1 | CC(=O)O[C@H]1C(=O)[C@@]2(C)[C@H]([C@H](OC(=O)c3ccccc3)[C@]3(O)C[C@H](OC(=O)[C@H](O)[C@@H](NC(=O)c4ccccc4)c4ccccc4)C(C)=C1C3(C)C)[C@]1(OC(C)=O)CO[C@@H]1C[C@@H]2O [paclitaxel] | – | tumor wt, % of controls (A549 cells): 60%
2 | YGRKKRRQRRRGLSKQPHI [Tat-Fhit 7-13 scrambled peptide] | still stable and undegraded | –
3 | YGRKKRRQRRRGQHLIKPS [Tat-Fhit 7-13 peptide] | still stable and undegraded | –
4 | wild-type Fhit/GST fusion protein: recombinant full-length Fhit fused to GST, expressed in E. coli BL21 | – | binding of Annexin A4 (GST pull-down) (Annexin A4): binds
